Test results published in the NIST ThermoML archive (doi:10.1016/j.jct.2017.06.013).

Experiment: xn = mol fraction of the nth substance listed
Conditions: Liquid, Vibrating tube method

CC(C)OC(C)C [diisopropyl ether] + CCCCCCO
mass density [kg/m3]
Conditions	x1 = 0.1524	x1 = 0.3196	x1 = 0.4906	x1 = 0.6974	x1 = 0.8457
293.15 K, 100 kPa	806.7	792.1	776.3	756.4	741.2
293.15 K, 500 kPa	806.9	792.3	776.7	756.8	741.7
293.15 K, 1000 kPa	807.2	792.7	777.1	757.3	742.2
293.15 K, 2000 kPa	807.9	793.5	777.9	758.3	743.3
293.15 K, 5000 kPa	810	795.7	780.4	761.1	746.4
293.15 K, 10000 kPa	813.4	799.5	784.5	765.7	751.4
293.15 K, 15000 kPa	816.6	803	788.3	770	756.1
293.15 K, 20000 kPa	819.7	806.4	792	774.1	760.5
293.15 K, 30000 kPa	825.7	812.8	799	781.7	768.7
293.15 K, 40000 kPa	831.2	818.6	805.3	788.6	776
293.15 K, 50000 kPa	836.3	824.1	811.2	795	782.9
293.15 K, 60000 kPa	841.3	829.4	816.8	801	789.3
293.15 K, 70000 kPa	846.1	834.5	822.1	806.7	795.3
293.15 K, 80000 kPa	850.4	839.1	827.1	812	800.8
293.15 K, 90000 kPa	854.7	843.6	831.8	817.1	806.1
293.15 K, 100000 kPa	858.8	848	836.3	822	811.2
293.15 K, 110000 kPa	862.7	852	840.6	826.6	816
293.15 K, 120000 kPa	866.5	856	844.8	830.9	820.5
293.15 K, 130000 kPa	870.3	859.9	848.9	835.2	825
293.15 K, 140000 kPa	873.7	863.5	852.6	839.2	829
313.15 K, 100 kPa	791.5	776	759.1	737.8	721.4
313.15 K, 500 kPa	791.8	776.3	759.5	738.2	721.9
313.15 K, 1000 kPa	792.2	776.7	760	738.8	722.5
313.15 K, 2000 kPa	793	777.6	761	739.9	723.8
313.15 K, 5000 kPa	795.3	780.2	763.9	743.3	727.5
313.15 K, 10000 kPa	799	784.3	768.4	748.4	733.2
313.15 K, 15000 kPa	802.6	788.2	772.7	753.3	738.5
313.15 K, 20000 kPa	806	791.9	776.8	757.8	743.4
313.15 K, 30000 kPa	812.4	798.9	784.3	766.2	752.5
313.15 K, 40000 kPa	818.5	805.4	791.4	773.9	760.8
313.15 K, 50000 kPa	823.9	811.2	797.7	780.9	768.2
313.15 K, 60000 kPa	829.3	817	803.8	787.5	775.1
313.15 K, 70000 kPa	834.3	822.3	809.5	793.6	781.7
313.15 K, 80000 kPa	839	827.3	814.7	799.3	787.7
313.15 K, 90000 kPa	843.4	832	819.7	804.6	793.2
313.15 K, 100000 kPa	847.8	836.6	824.6	809.8	798.7
313.15 K, 110000 kPa	852	841	829.2	814.6	803.8
313.15 K, 120000 kPa	855.9	845.2	833.6	819.3	808.7
313.15 K, 130000 kPa	859.9	849.2	837.8	823.9	813.4
313.15 K, 140000 kPa	863.6	853.2	841.9	828.2	817.9
333.15 K, 100 kPa	775.6	759.2	741.1	718.3	700.6
333.15 K, 500 kPa	776	759.6	741.6	718.8	701.3
333.15 K, 1000 kPa	776.5	760.1	742.2	719.5	702.1
333.15 K, 2000 kPa	777.4	761.1	743.3	720.8	703.6
333.15 K, 5000 kPa	780	764	746.7	724.7	707.9
333.15 K, 10000 kPa	784.2	768.7	751.8	730.6	714.5
333.15 K, 15000 kPa	788.1	773	756.7	736.1	720.6
333.15 K, 20000 kPa	791.8	777.1	761.2	741.3	726.2
333.15 K, 30000 kPa	798.8	784.8	769.6	750.7	736.4
333.15 K, 40000 kPa	805.4	791.9	777.3	759.3	745.6
333.15 K, 50000 kPa	811.3	798.3	784.2	766.8	753.8
333.15 K, 60000 kPa	817	804.4	790.7	773.8	761.2
333.15 K, 70000 kPa	822.4	810.1	796.8	780.5	768.3
333.15 K, 80000 kPa	827.3	815.4	802.4	786.6	774.7
333.15 K, 90000 kPa	832.2	820.4	807.8	792.4	780.8
333.15 K, 100000 kPa	836.8	825.3	813	797.9	786.7
333.15 K, 110000 kPa	841.1	829.8	817.8	803	792
333.15 K, 120000 kPa	845.5	834.4	822.6	808.1	797.4
333.15 K, 130000 kPa	849.4	838.6	827	812.8	802.2
333.15 K, 140000 kPa	853.4	842.8	–	–	–
